Read-outs that look alike come from different tables or passages of the source. Ends that are not written are not given here.
Tests used:
[1] = system: E. coli ATCC 25922; type: cell-based, Escherichia coli
From the text: (§1) The method for peptide synthesis has been described in detail previously. E. coli ATCC 25922 (LB media), P. aeruginosa ATCC 15692 (NB+0.5% NaCl media), Listeria monocytogenes ATCC 3710 (LB media), Staphylococcus epidermidis ATCC 12228 (LB media), and S. aureus ATCC 29213 (TSB media) were obtained from the American Type Culture Collection (Manassas, VA, USA). Bacillus subtilis KCTC 1998 (LB media), Salmonella typhimurium KCTC 1926 (NB media), and Proteus vulgaris KCTC 2433 (NB media) were obtained from the Korean Collection for Type Cultures (Jeollabuk-do, Korea). E. coli CCARM 1238 was received from the Culture Collection of Antibiotic Resistant Microbes at Seoul Women’s University, Korea. Drug-resistant P. aeruginosa 3543, 3904, 3547, and 4007 and S. aureus 3126, 0027, 5157, 1635, 4761, 5159, 3359, 2122, 1630, 1870, 3511, 5156, and 3518 were resistant strains isolated from patients with otitis media in a Chonnam National University’s hospital.
(§2) The antibacterial activities of AMPs (melittin, clavaspirin, and its analogs) and conventional antibiotic drugs (erythromycin, gentamicin, ampicillin, and piperacidin) were determined using microdilution assays. Bacterial cells were cultured at 37° C in appropriate culture media at pH 5.5 or pH 7.4 until collection during the mid-log phase and suspended in 10 mM sodium phosphate buffer (pH 5.5 or pH 7.4) supplemented with 10% culture medium. Thereafter, 2× serial dilutions of each peptide (0.25–128 μM) or antibiotic (0.25–256 μM) were added to sterile 96-well plates, and aliquots of cell suspension (5 × 10^5 colony forming units (cfu)/mL) were seeded into each well. The samples were then incubated at 37° C for 24 h. At the end of the incubation, the minimum inhibitory concentrations (MICs) of the peptides were determined using a VERSA Max microplate reader (Molecular Devices Co., Sunnyvale, CA, USA) at a wavelength of 600 nm. […] MIC values were calculated as the mean of 3 independent experiments conducted in triplicate.

[2] = system: S. aureus ATCC 29213; type: cell-based, Staphylococcus aureus
From the text: as §1, with “E. coli ATCC 25922 (LB media), P. aeruginosa ATCC 15692 (NB+0.5% NaCl media), Listeria monocytogenes ATCC 3710 (LB media), Staphylococcus epidermidis ATCC 12228 (LB media), and S. aureus ATCC 29213 (TSB media) were obtained from the American Type Culture Collection (Manassas, VA, USA).” left out
as §2

[3] = system: Proteus vulgaris KCTC 2433; type: cell-based
From the text: as §1, with “Bacillus subtilis KCTC 1998 (LB media), Salmonella typhimurium KCTC 1926 (NB media), and Proteus vulgaris KCTC 2433 (NB media) were obtained from the Korean Collection for Type Cultures (Jeollabuk-do, Korea).” left out
as §2

[4] = system: Salmonella typhimurium KCTC 1926; type: cell-based
From the text: as §1, with “Bacillus subtilis KCTC 1998 (LB media), Salmonella typhimurium KCTC 1926 (NB media), and Proteus vulgaris KCTC 2433 (NB media) were obtained from the Korean Collection for Type Cultures (Jeollabuk-do, Korea).” left out
as §2

[5] = system: human red blood cells (hRBCs); assay: Hemolysis; type: cell-based; settings: PBS buffer containing 8% hRBCs, 1 h, 37° C, absorbance 414 nm, triplicate
Method: Fresh human red blood cells (hRBCs) from healthy donors were centrifuged at 800 × g and washed with phosphate-buffered saline (PBS) until the supernatant was clear. Twofold serial dilutions of the peptides in PBS were added to a 96-well plate, after which the hRBCs were added to obtain a final concentration of 8% (vol/vol). The samples were then incubated with mild agitation for 1 h at 37° C. The samples were then centrifuged at 800 × g for 10 min, and the absorbance of the supernatant was measured at 414 nm. All the measurements were performed in triplicate, and the percentages of hemolysis were calculated using equation 1: % hemolysis=[(A414 in peptide solution−A414 in PBS)/(A414 in […]−A414 in PBS)]×100 (1)
Where 100% hemolysis was defined as the absorbance measured from hRBCs exposed to 1% Triton X-100 and zero hemolysis was characterized using hRBCs alone in PBS [40].

[6] = system: HaCaT (human keratinocyte) cells; assay: Cytotoxicity, MTT assay; type: cell-based; settings: DMEM containing 10% FBS and 1% PS, 24 h, 37° C; for EC50: read-out: EC50 (effective concentration in HaCaT cells)
Method: To examine the cytotoxic effects of the peptides, HaCaT (human keratinocyte) cells were cultured in Dulbecco’s modified Eagle’s medium (DMEM) supplemented with antibiotics (100 U/ml penicillin and 100 μg/ml streptomycin) and 10% fetal calf serum at 37° C in a humidified chamber under a 5% CO2 atmosphere. Growth inhibition was evaluated using 3-(4, 5-dimethylthizol-2-yl)-2, 5-diphenyltetrazolium bromide (MTT) assays to measure cell viability. After cells were seeded into a 96-well plate at a density of 2 × 10^4/well and incubated for 24 h, twofold serial dilutions of each peptide in DMEM were added to the wells, and the cells were incubated for an additional 24 h at 37° C. Thereafter, 10 μl of MTT (5 mg/ml) was added to each well, and the plate was incubated for 4 h. The supernatants were then removed, and 50 μl of DMSO was added to each well to dissolve any remaining precipitate. Finally, the absorbance at 570 nm was measured using a microtiter reader.

[7] = pH 5.5 (I), 10 mM sodium phosphate buffer, 10% LB, 37° C, 24 h, mean of 3 experiments
[8] = pH 7.4 (II), 10 mM sodium phosphate buffer, 10% LB, 37° C, 24 h, mean of 3 experiments

Substance	MIC, E. coli ([1]; ATCC 25922, 24 h, pH 5.5) [µM]	MIC, E. coli ([1]; ATCC 25922, 24 h, pH 7.4) [µM]	MIC, S. aureus ([2]; ATCC 29213, 24 h, pH 5.5) [µM]	MIC, S. aureus ([2]; ATCC 29213, 24 h, pH 7.4) [µM]	MIC, P. vulgaris ([3]; KCTC 2433, 24 h, pH 5.5) [µM]	MIC, P. vulgaris ([3]; KCTC 2433, 24 h, pH 7.4) [µM]	MIC, S. typhimurium ([4]; KCTC 1926, 24 h, pH 5.5) [µM]	MIC, S. typhimurium ([4]; KCTC 1926, 24 h, pH 7.4) [µM]	HC10 (hemolytic activity) [5]	HC50 (hemolytic activity) [5]	EC10 (effective concentration in HaCaT cells) [6]	EC50 [6] [µM]	MIC, E. coli [1, 7] [µM]	MIC, E. coli [1, 8] [µM]	MIC, S. aureus [2, 7] [µM]	MIC, S. aureus [2, 8] [µM]	MIC, P. vulgaris [3, 7] [µM]	MIC, P. vulgaris [3, 8] [µM]	MIC, S. typhimurium [4, 7] [µM]	MIC, S. typhimurium [4, 8] [µM]
FKRFIGSVKHGIGHLVHHIGVAL-NH2 [CSP-3]	2	4	8	8	4	8	64	4	> 400	> 400	84	188	–	–	–	–	–	–	–	–
FLRFIGSVKHGKGHLVHHIGVAL-NH2 [CSP-4]	–	–	–	–	–	–	–	–	> 400	> 400	> 400	> 400	2	4	8	8	4	8	64	4

Source: PMC5884652, “New antimicrobial peptide kills drug-resistant pathogens without detectable resistance” (Oncotarget, 2018)
